Experimental data taken from patent US7507739B2, “6-[(substituted)phenyl]triazolopyrimidines as anticancer agents” (Wyeth, priority 2003, dated 2009).
pIC50: −log10 of the molar value.

Key:
COLO 205 cells = experiment: MTS cytotoxicity test with COLO 205 cells; type: cell-based, human; conditions: Homo sapiens, COLO 205, 72 h, 3 days
Description: The assay, which is sold in kit form by Promega (Madison, Wis.; CellTiter 96 AQueous Non-Radioactive Cell Proliferation Assay), is based on the conversion by viable cells, but not by dead cells, of the tetrazolium salt, MTS (3-(4,5-dimethylthiazol-2-yl)-5-(3-carboxymethoxyphenyl)-2-(4-sulphophenyl)-2H-tetrazolium, inner salt), into a water-soluble colored formazan which is detected by spectrophotometry. Compounds are tested at nine concentrations, in order to determine IC50 values. For the test procedure, cells are harvested by trypsinization (or, in the case of non-adherent cells, by simple resuspension), washed, counted and distributed to wells of 96-well flat-bottom microtiter plates at 1000 cells per well in 200 μL of medium. In addition, one row of wells on a separate plate received cells as above (“time 0” plate). All plates are incubated at 37° in humidified 5% CO2 in air for about 24 hr.
On day 2, compounds for test are diluted and added to wells. Compounds are dissolved in DMSO at 10 mg/mL. For each compound, nine serial 2-fold dilutions are prepared in DMSO. Ten μL of each dilution in DMSO is transferred to 100 μL of medium, mixed well, and then 5 μL of this dilution is transferred in quadruplicate to wells containing cells. The final high concentration of each compound is typically 5 μM. Plates are returned to the incubator for three days. At the time of drug addition to the experimental plates, the MTS assay is run on the “time 0” plate. This produced the “time 0 MTS value” which is related to the number of viable cells per well at the time of drug addition.
After three days of culture with test compounds (day 5 overall), the MTS assay is done on all wells of the experimental plates. The absorbance values of the quadruplicate sample wells are averaged and divided by the average of the “time 0” values. The average of control wells without drug, divided by the average “time 0” value, gave the maximal relative increase in MTS color yield due to cell growth during the final three days of culture. The average of control wells with high drug concentration, divided by the “time 0” value, gave the minimal relative color yield for cells that are completely killed. The nine values for each compound are plotted against concentration, and the concentration that produced a relative color yield half way between the maximum and minimum is taken as the IC50 value.
COLO 205 is a human colon carcinoma cell line that is used for comparative testing of the examples of this invention and several reference compounds. This line is sensitive to paclitaxel and vincristine.

HeLa cells = experiment: Cell cycle analysis with HeLa cells; type: cell-based, human; conditions: 18 hr
Description: HeLa cells are harvested by trypsinization, washed, counted and distributed to wells of 12-well plates at 125,000 cells per well in 2 mL medium. Cells are cultured overnight. […] Cells are continued in culture for 18 hr after compound addition, then cells in each well are harvested (taking care to recover both adherent and non-adherent cells) and processed using the CycleTEST PLUS kit (Becton Dickinson Immunocytometry Systems, San Jose, Calif.). Flow cytometry is done with a FACSort instrument (Becton Dickinson).
This procedure measures the percentages of cells in a population that are in the G1, S, and G2/M phases of the cell cycle. It utilizes staining of cell nuclei with propidium iodide and analysis by flow cytometry.

pure tubulin = experiment: Tubulin polymerization test with pure tubulin without GTP; type: biochemical, bovine; conditions: no GTP
Description: Medium is RPMI-1640 with L-glutamine, supplemented with 10% heat-inactivated fetal calf serum, 100 units/ml penicillin, and 100 μg/ml streptomycin (Gibco, Grand Island, N.Y.). Microtubule-associated protein (MAP)-rich tubulin, containing about 70% tubulin and 30% MAPs (#ML113), and highly purified tubulin (>99% pure, #TL238), both from bovine brain, are obtained from Cytoskeleton, Inc., Denver, Colo. PEM buffer (80 mM piperazine-N,N′-bis[2-ethanesulfonic acid], pH 6.9, 1 mM ethylene glycol-bis(β-aminoethyl ether)-N,N,N′,N′-tetraacetic acid, 1 mM magnesium chloride) and guanosine 5′-triphosphate (GTP) are also obtained from Cytoskeleton. [3H]paclitaxel, specific activity 14.7 Ci/mmol, is purchased from Moravek Biochemicals (Brea, Calif.). [^3H]vinblastine, specific activity 9.60 Ci/mmol and MicroSpin G-50 columns are obtained from Amersham Biosciences (Piscataway, N.J.). […] Other reagents are obtained from Sigma (St. Louis, Mo.).
Two variations of this procedure are done, one using MAP-rich tubulin and one using pure tubulin.
The procedure with pure tubulin is similar except for the following changes. […] The supernatant after centrifugation is dispensed to a 96-well plate already containing compounds. Each compound is tested in duplicate at six serial 3-fold dilutions starting at 24.3 μM. The plate reader is thermostated at 35°.

CN(C)CCCOc1cc(F)c(-c2c(Cl)nc3ncnn3c2C2CCCCCC2)c(F)c1 [Example 31, 3-[4-(5-Chloro-7-cycloheptyl[1,2,4]triazolo[1,5-a]pyrimidin-6-yl)-3,5-difluorophenoxy]-N,N-dimethylpropan-1-amine]
pIC50 (COLO 205 cells): 7.72

C[C@H](Nc1c(-c2c(F)ccc(OCCCCN(C)C)c2F)c(Cl)nc2ncnn12)C(F)(F)F [Example 29, 5-Chloro-6-{3-[4-(dimethylamino)butoxy]-2,6-difluorophenyl}-N-[(1S)-2,2,2-trifluoro-1-methylethyl][1,2,4]triazolo[1,5-a]pyrimidin-7-amine]
pIC50 (COLO 205 cells): 6.36

CC(=O)O[C@@]12CO[C@@H]1C[C@H](O)[C@@]1(C)C(=O)[C@H](O)C3=C(C)[C@@H](OC(=O)[C@H](O)[C@@H](NC(=O)OC(C)(C)C)c4ccccc4)C[C@@](O)([C@@H](OC(=O)c4ccccc4)[C@H]21)C3(C)C [Docetaxel, reference compound]
Percent in Cell Cycle Phase >4N (HeLa cells; 0.25 nM): 2%
Percent in Cell Cycle Phase Apop (HeLa cells; 0.25 nM): 8%
Percent in Cell Cycle Phase G1 (HeLa cells; 0.25 nM): 58%
Percent in Cell Cycle Phase G2/M (HeLa cells; 0.25 nM): 16%
Percent in Cell Cycle Phase S (HeLa cells; 0.25 nM): 17%
Percent in Cell Cycle Phase >4N (HeLa cells; 0.5 nM): 2%
Percent in Cell Cycle Phase Apop (HeLa cells; 0.5 nM): 19%
Percent in Cell Cycle Phase G1 (HeLa cells; 0.5 nM): 48%
Percent in Cell Cycle Phase G2/M (HeLa cells; 0.5 nM): 14%
Percent in Cell Cycle Phase S (HeLa cells; 0.5 nM): 18%
Percent in Cell Cycle Phase >4N (HeLa cells; 1 nM): 2%
Percent in Cell Cycle Phase Apop (HeLa cells; 1 nM): 35%
Percent in Cell Cycle Phase G1 (HeLa cells; 1 nM): 35%
Percent in Cell Cycle Phase G2/M (HeLa cells; 1 nM): 14%
Percent in Cell Cycle Phase S (HeLa cells; 1 nM): 15%
Percent in Cell Cycle Phase >4N (HeLa cells; 2 nM): 2%
Percent in Cell Cycle Phase Apop (HeLa cells; 2 nM): 48%
Percent in Cell Cycle Phase G1 (HeLa cells; 2 nM): 19%
Percent in Cell Cycle Phase G2/M (HeLa cells; 2 nM): 14%
Percent in Cell Cycle Phase S (HeLa cells; 2 nM): 18%
Percent in Cell Cycle Phase >4N (HeLa cells; 3 nM): 2%
Percent in Cell Cycle Phase Apop (HeLa cells; 3 nM): 52%
Percent in Cell Cycle Phase G1 (HeLa cells; 3 nM): 15%
Percent in Cell Cycle Phase G2/M (HeLa cells; 3 nM): 14%
Percent in Cell Cycle Phase S (HeLa cells; 3 nM): 17%
Percent in Cell Cycle Phase >4N (HeLa cells; 4 nM): 2%
Percent in Cell Cycle Phase Apop (HeLa cells; 4 nM): 49%
Percent in Cell Cycle Phase G1 (HeLa cells; 4 nM): 12%
Percent in Cell Cycle Phase G2/M (HeLa cells; 4 nM): 22%
Percent in Cell Cycle Phase S (HeLa cells; 4 nM): 16%
Percent in Cell Cycle Phase >4N (HeLa cells; 5 nM): 3%
Percent in Cell Cycle Phase Apop (HeLa cells; 5 nM): 42%
Percent in Cell Cycle Phase G1 (HeLa cells; 5 nM): 9%
Percent in Cell Cycle Phase G2/M (HeLa cells; 5 nM): 31%
Percent in Cell Cycle Phase S (HeLa cells; 5 nM): 17%
Percent in Cell Cycle Phase >4N (HeLa cells; 6 nM): 4%
Percent in Cell Cycle Phase Apop (HeLa cells; 6 nM): 37%
Percent in Cell Cycle Phase G1 (HeLa cells; 6 nM): 10%
Percent in Cell Cycle Phase G2/M (HeLa cells; 6 nM): 33%
Percent in Cell Cycle Phase S (HeLa cells; 6 nM): 17%
Percent in Cell Cycle Phase >4N (HeLa cells; 8 nM): 4%
Percent in Cell Cycle Phase Apop (HeLa cells; 8 nM): 29%
Percent in Cell Cycle Phase G1 (HeLa cells; 8 nM): 7%
Percent in Cell Cycle Phase G2/M (HeLa cells; 8 nM): 48%
Percent in Cell Cycle Phase S (HeLa cells; 8 nM): 11%
Percent in Cell Cycle Phase >4N (HeLa cells; 10 nM): 4%
Percent in Cell Cycle Phase Apop (HeLa cells; 10 nM): 35%
Percent in Cell Cycle Phase G1 (HeLa cells; 10 nM): 9%
Percent in Cell Cycle Phase G2/M (HeLa cells; 10 nM): 37%
Percent in Cell Cycle Phase S (HeLa cells; 10 nM): 16%
Percent in Cell Cycle Phase >4N (HeLa cells; 20 nM): 3%
Percent in Cell Cycle Phase Apop (HeLa cells; 20 nM): 38%
Percent in Cell Cycle Phase G1 (HeLa cells; 20 nM): 8%
Percent in Cell Cycle Phase G2/M (HeLa cells; 20 nM): 40%
Percent in Cell Cycle Phase S (HeLa cells; 20 nM): 12%
absorbance increase, polymerization of pure tubulin (pure tubulin; 0.1 μM): small increase in absorbance
A340 at 0 min (pure tubulin; 24.3 μM): 0
A340 at 5 min (pure tubulin; 24.3 μM): 0.20
A340 at 10 min (pure tubulin; 24.3 μM): 0.20
A340 at 15 min (pure tubulin; 24.3 μM): 0.20
A340 at 20 min (pure tubulin; 24.3 μM): 0.20
absorbance increase, polymerization of pure tubulin (pure tubulin; 24.3 μM, first 5 min): rapid increase in absorbance

C[C@H](Nc1c(-c2c(F)cc(OCCCN)cc2F)c(Cl)nc2ncnn12)C(F)(F)F [Example 5, 6-[4-(3-Aminopropoxy)-2,6-difluorophenyl]-5-chloro-N-[(1S)-2,2,2-trifluoro-1-methylethyl][1,2,4]triazolo[1,5-a]pyrimidin-7-amine]
pIC50 (COLO 205 cells): 6.34
